Laboratory results as given in patent publication US20090281049A1, “New use of ginsenoside compound-k in manufacturing medicaments” (priority 2006, published 2009).

Experiments:
[1] = tested on: Collagen Type II (CII) induced arthritis in rats; test: Preventive effect on Collagen Type II (CII) induced arthritis in rats; format: in vivo, Rat, SD strain; conditions: 9 mg/kg sc
Experimental: (§1) Inflammation-induced agent: Collagen Type II was dissolved in 0.1 mol/L acetic acid to make final concentration be 2 mg/ml collagen solution, and held in 4° C. overnight. The Collagen Type II solution was added to cold Freund's Adjuvant Incomplete by drops (Collagen Type II: Freund's Adjuvant Incomplete=1:1) on the next day, emulsified completely (Type II Collagen solution: Freund's Adjuvant Incomplete=1:1), and the final concentration of Collagen Type II was 1 mg/ml. The Collagen Type II emulsion was reserved in a refrigerator at 4° C.
(§2) Immune method: Each rat was immunized by being injected subcutaneously at 5 points on the back with 0.1 ml emulsion in each point, total of […] (contained 0.5 mg Collagen Type II), and immunized again in the same way 7 days later. An emulsion of 0.1 mol/L acetic acid and Freund's Adjuvant Incomplete was injected in control group. The swell values of the arthrosis in right hind ankle and foot were measured respectively by using a hydroplethismometer before injection and 20 days after immunization.
The Collagen Type II solution, which had been dissolved in acetic acid and held overnight, was adjusted to concentration 2 mg/ml, then added by drops slowly to Freund's Adjuvant Incomplete in proportion of 1:1. After the mixture was emulsified completely, each rat was injected subcutaneously at 5 points on the back with 0.1 ml emulsion in each point (total 0.5 ml in each rat, containing 0.5 mg Collagen Type II) for the first immunization. 7 days later, the second immunization was repeated in the same way.
The animals were divided into large dose group: Ginsenoside Compound-K, 10 mg/kg, iv, medium dose group: Ginsenoside Compound-K, 5 mg/kg, iv, small dose group: Ginsenoside Compound-K, 2.5 mg/kg, iv, Tripterygium Wilfordii Hook group: 1.5 mg/kg, po-, Enbrel group: 9 mg/kg, sc and blank control group: physiological saline 10 mg/kg, iv. The animals of administration groups were administered at the first immunization and stopped administering 8 days after the first immunization. The swell value of arthrosis in ankle and foot was measured by using hydroplethismometer before immunization and on day 20, 22, 24, 27 and 29 after the first immunization respectively. Swell rate and inhibition rate were calculated by the same method as the foregoing. Differences among groups were compared with t test. When the treatment finished, the arthroses in ankle and foot were taken for pathological examination.

[2] = tested on: Collagen Type II (CII) induced arthritis in rats; test: Treatment effect on Collagen Type II (CII) induced arthritis in rats; format: in vivo, Rat, SD strain; conditions: 9 mg/kg sc
Experimental: as §1, §2
Collagen Type II (CII) and Freund's Adjuvant Incomplete were ground into emulsion and were injected subcutaneously into the back of the rats for immunization. Until the 19th day, most parts of the pedal joint of the rats began to swell. Picked 40 rats out which were with swelled pedal joint and divided them into […] subsequently, i.e. 8 rats in each group. They are respectively […]: Ginsenoside Compound-K, 10 mg/kg, iv, medium dose group: Ginsenoside Compound-K, 5 mg/kg, iv, small dose group: Ginsenoside Compound-K, 2.5 mg/kg, iv, Enbrel group: 9 mg/kg, sc, Tripterygium Wilfordii Hook group: 1.5 mg/kg, po. and blank control group: physiological saline 10 mg/kg, iv. The rats were administered for 8 days consecutively. The swell value of the foot was measured respectively by using hydroplethismometer before inflammation induced and at different time after the onset of symptoms, then calculated swell rate and prohibition rate, and compared the differences among groups with t test.

[3] = tested on: carrageenan-induced acute inflammation in mice; test: Carrageenan-induced paw edema in mice; format: in vivo, Kunming mice; conditions: 1 mg/kg po
[4] = tested on: Adjuvant Arthritis in rats; test: Preventive effect on adjuvant induced adjuvant arthritis in rats; format: in vivo, Rat, SD strain; conditions: 1 mg/kg po
Experimental: (§3) Freund's Adjuvant Complete, purchased from Sigma Company, was injected into the plantar surface of the right hind paw by 0.1 ml in order to induce inflammation in rats.
(§4) Animals were firstly divided into large dose group: 10 mg/kg, iv, medium dose group: 5 mg/kg, iv, small dose group: 2.5 mg/kg, iv, Indomethacin group: 1 mg/kg, po, Tripterygium Wilfordii Hook group: 1.5 mg/kg, po and blank control group: physiological saline 10 mg/kg, iv. The volume of the right hind paw of the rats was measured by using hydroplethismometer before inflammation induced. Then 0.1 ml Freund's Adjuvant Complete was injected into the plantar surface of the right hind paw in order to induce inflammation in rats. The rats were grouped by the foregoing division way in the succeeding day, and to be administered for 15 days. The volume of paw was measured in regular intervals. Swell rate and inhibition rate were calculated by the same method as the foregoing. Differences among groups were compared by t test.

[5] = tested on: carrageenan-induced acute inflammation in rats; test: Carrageenan-induced paw edema in rats; format: in vivo, Rat, SD strain; conditions: 1 mg/kg po
Experimental: Animals were firstly divided into large dose group: 10 mg/kg, iv, medium dose group: 5 mg/kg, iv, small dose group: 2.5 mg/kg, iv, an Indomethacin group: 1 mg/kg, po and a blank control group: physiological saline 10 mg/kg, iv. The animals were administered by the foregoing method for 3 days. The volume of the right hind paw of the rats was measured using hydroplethismometer before inflammation induced. 1 hour after the last administration, 0.1 ml 1% carrageenan was injected into the plantar surface of the right hind paw in order to induce inflammation. The volume of the right hind paw of the rats was measured by hydroplethismometer every other hour thereafter respectively. Swell rate and inhibition rate were calculated by the same method as above. Differences among groups were compared with t test.

[6] = tested on: Adjuvant Arthritis in rats; test: Treatment effect on adjuvant induced adjuvant arthritis in rats; format: in vivo, Rat, SD strain; conditions: 1 mg/kg po
Experimental: as §3
as §4, with “1.5 mg/kg, po. and blank” for “1.5 mg/kg, po and blank”, “in rats. 20 days after inflammation induced, the rats were” for “in rats. The rats were”, “foregoing division method and to” for “foregoing division way in the succeeding day, and to”, “administered for 8 days. The” for “administered for 15 days. The”, “were calculated with the same” for “were calculated by the same”, “were compared with t test.” for “were compared by t test.”

For enbrel, the swell value ([1]; 0 day) was 1.06 ± 0.04 mL, the inhibition rate ([1]; 20 day) was <30.52> % and the swell rate ([1]; 20 day) was “(36.48 ± 15.50) %”. The swell value ([1]; 20 day) was 1.38 ± 0.20 mL, the inhibition rate ([1]; 22 day) was <31.53> % and the swell rate ([1]; 22 day) was “(35.30 ± 14.25) %”. For the same molecule, the swell value ([1]; 22 day) was 1.36 ± 0.22 mL, the inhibition rate ([1]; 24 day) was <35.50> % and the swell rate ([1]; 24 day) was “(33.88 ± 13.57) %”. For the same molecule, the swell value ([1]; 24 day) was 1.34 ± 0.21 mL, the inhibition rate ([1]; 27 day) was <36.49> % and the swell rate ([1]; 27 day) was “(32.16 ± 15.12) %”. For the same molecule, the swell value ([1]; 27 day) was 1.34 ± 0.20 mL, the inhibition rate ([1]; 29 day) was <36.99> % and the swell rate ([1]; 29 day) was “(27.63 ± 10.87) %”. The swell value ([1]; 29 day) was 1.31 ± 0.16 mL, the swell value ([2]; 0 day) was 1.00 ± 0.08 mL and the inhibition rate ([2]; 20 day) was <4.41> %. For the same molecule, the swell rate ([2]; 20 day) was “(51.65 ± 15.35%”, the swell value ([2]; 20 day) was 1.51 ± 0.11 mL and the inhibition rate ([2]; 22 day) was <17.61> %. The swell rate ([2]; 22 day) was “(49.63 ± 25.60) %”, the swell value ([2]; 22 day) was 1.48 ± 0.15 mL and the inhibition rate ([2]; 23 day) was <20.98> %. For the same molecule, the swell rate ([2]; 23 day) was “(49.20 ± 19.86) %”, the swell value ([2]; 23 day) was 1.48 ± 0.12 mL and the inhibition rate ([2]; 25 day) was <24.74> %. The swell rate ([2]; 25 day) was “(46.43 ± 15.37) %”, the swell value ([2]; 25 day) was 1.46 ± 0.11 mL and the inhibition rate ([2]; 28 day) was <27.88> %. For the same molecule, the swell rate ([2]; 28 day) was “(37.24 ± 17.23) %”, the swell value ([2]; 28 day) was 1.36 ± 0.09 mL and the inhibition rate ([2]; 31 day) was <26.03> %. For the same molecule, the swell rate ([2]; 31 day) was “(36.24 ± 14.64) %” and the swell value ([2]; 31 day) was 1.35 ± 0.08 mL.
For `COc1ccc2c(c1)c(CC(=O)O)c(C)n2C(=O)c1ccc(Cl)cc1` [Indomethacin, reference compound], the swell value ([3]; 0 h) was 1.47 ± 0.14 mL, the inhibition rate ([3]; 1 h) was <2.39> % and the swell rate ([3]; 1 h) was “(67.11 ± 17.30) %”. For the same molecule, the swell value ([3]; 1 h) was 2.44 ± 0.19 mL, the inhibition rate ([3]; 2 h) was <16.11> % and the swell rate ([3]; 2 h) was “(60.95 ± 18.36) %”. The swell value ([3]; 2 h) was 2.35 ± 0.20 mL, the inhibition rate ([3]; 4 h) was <36.57> % and the swell rate ([3]; 4 h) was “(51.04 ± 14.09) %”. The swell value ([3]; 4 h) was 2.21 ± 0.11 mL, the inhibition rate ([3]; 6 h) was <24.41> % and the swell rate ([3]; 6 h) was “(55.36 ± 19.90) %”. For the same molecule, the swell value ([3]; 6 h) was 2.26 ± 0.11 mL, the swell value ([4]; 0 day) was 1.23 ± 0.11 mL and the inhibition rate ([4]; 2 day) was <27.67> %. The swell rate ([4]; 2 day) was “(52.34 ± 15.07) %”, the swell value ([4]; 2 day) was 1.85 ± 0.09 mL and the inhibition rate ([4]; 4 day) was <20.69> %. The swell rate ([4]; 4 day) was “(70.99 ± 17.35) %”, the swell value ([4]; 4 day) was 2.08 ± 0.13 mL and the inhibition rate ([4]; 6 day) was <12.34> %. The swell rate ([4]; 6 day) was “(78.32 ± 23.41) %”, the swell value ([4]; 6 day) was 2.17 ± 0.17 mL and the inhibition rate ([4]; 9 day) was <4.11> %. The swell rate ([4]; 9 day) was “(69.44 ± 27.12) %”, the swell value ([4]; 9 day) was 2.06 ± 0.23 mL and the inhibition rate ([4]; 11 day) was <32.39> %. For the same molecule, the swell rate ([4]; 11 day) was “(52.68 ± 12.02) %”, the swell value ([4]; 11 day) was 1.86 ± 0.13 mL and the inhibition rate ([4]; 13 day) was <35.93> %. The swell rate ([4]; 13 day) was “(53.00 ± 15.57) %”, the swell value ([4]; 13 day) was 1.86 ± 0.13 mL and the inhibition rate ([4]; 15 day) was <35.50> %. For the same molecule, the swell rate ([4]; 15 day) was “(52.00 ± 11.27) %”, the swell value ([4]; 15 day) was 1.86 ± 0.13 mL and the swell value ([5]; 0 h) was 1.34 ± 0.15 mL. For the same molecule, the inhibition rate ([5]; 1 h) was <4.23> %, the swell rate ([5]; 1 h) was “(22.51 ± 10.19) %” and the swell value ([5]; 1 h) was 1.68 ± 0.10 mL. The inhibition rate ([5]; 2 h) was <20.44> %, the swell rate ([5]; 2 h) was “(25.65 ± 14.10) %” and the swell value ([5]; 2 h) was 1.72 ± 0.16 mL. The inhibition rate ([5]; 3 h) was <20.17> %, the swell rate ([5]; 3 h) was “(33.28 ± 13.54) %” and the swell value ([5]; 3 h) was 1.82 ± 0.17 mL. For the same molecule, the inhibition rate ([5]; 4 h) was <26.76> %, the swell rate ([5]; 4 h) was “(28.45 ± 15.71) %” and the swell value ([5]; 4 h) was 1.77 ± 0.22 mL. For the same molecule, the inhibition rate ([5]; 5 h) was <37.84> %, the swell rate ([5]; 5 h) was “(23.04 ± 11.45) %” and the swell value ([5]; 5 h) was 1.69 ± 0.15 mL. The swell value ([6]; 0 day) was 1.14 ± 0.05 mL, the inhibition rate ([6]; 19 day) was <18.65> % and the swell rate ([6]; 19 day) was “(80.03 ± 17.69) %”. For the same molecule, the swell value ([6]; 19 day) was 2.04 ± 0.20 mL, the inhibition rate ([6]; 21 day) was <19.05> % and the swell rate ([6]; 21 day) was “(85.98 ± 15.49) %”. For the same molecule, the swell value ([6]; 21 day) was 2.11 ± 0.17 mL, the inhibition rate ([6]; 23 day) was <19.09> % and the swell rate ([6]; 23 day) was “(86.16 ± 15.90) %”. The swell value ([6]; 23 day) was 2.11 ± 0.17 mL, the inhibition rate ([6]; 26 day) was <20.41> % and the swell rate ([6]; 26 day) was “(89.32 ± 16.25) %”. For the same molecule, the swell value ([6]; 26 day) was 2.15 ± 0.16 mL, the inhibition rate ([6]; 30 day) was <12.14> % and the swell rate ([6]; 30 day) was “(92.39 ± 20.26) %”. For the same molecule, the swell value ([6]; 30 day) was 2.18 ± 0.23 mL.
